Data as given in patent US20240316146A1, “METHODS OF REDUCING NEUROPATHY AND NEUROPATHIC SYMPTOMS AND TREATING CANCER” (Bexion Pharmaceuticals Inc., priority 2021, published 2024).

System: mouse oxaliplatin model of chemotherapy-induced neuropathy
Experiment: Static mechanical (tactile) allodynia, von Frey filaments, Study 1
Assay type: in vivo
Description: 60 adult male C57/BL6 mice (Charles River), 6-7 weeks of age, were housed in groups of 5 in Perspex cages, in a controlled environment of constant temperature and humidity (temperature: 21±1° C., light: dark cycle of 12:12 hours), with food and water available ad libitum. Animals were allowed to recover from transportation for at least one week before commencing experiments.
Static mechanical tactile allodynia: Static mechanical (tactile) allodynia was assessed by measurement of withdrawal threshold using calibrated (force; g) von-Frey monofilaments (Touch-Test Sensory Evaluator; Scientific Marketing Associates) applied to the plantar surface of the left hind-paw. The animals were placed in individual Perspex boxes on a raised metal mesh for 30-40 min before the test to habituate. A series of graduated von Frey hairs (0.07, 0.16, 0.4, 0.6 and 1 g) were applied in sequence with a protocol of 1 sec on 1 sec off repeated 10 times. Each hair was applied perpendicularly to the center of the ventral surface of the paw until it bent slightly. The force applied to the hind-paw of the animal to induce 5 responses out of 10 trials was recorded as paw withdrawal threshold (PWT) 50%.
Warm vials of BQX-350 were brought to room temperature and reconstituted with 4 mL water for injection via syringe. The vials were gently agitated and/or vortexed for 15-20 sec and allowed to sit at room temp for 5 mins. The rehydrated solution contained 2.2 mg/mL SapC (8.8 mg SapC per vial). About […] of the formulation was injected to achieve a target dose of 20 mg/kg in each mouse. Pregabalin was reconstituted in water and injected to achieve a target dose of 30 mg/kg in each mouse.
A two-way repeated measures ANOVA with ‘treatment’ as a between subjects effect, and ‘day’ as a within subjects effect was used (using GraphPad Prism version 9.0 for Windows, GraphPad Software, San Diego California USA), followed by Dunnett's multi comparisons test. Data is presented as mean±SEM.

[1] = oxaliplatin 10 mg/kg IP day 0 (+vehicle, BXQ-350 20 mg/kg IP or pregabalin 30 mg/kg IP), group mean

`O=C([O-])C(=O)[O-].[NH-][C@@H]1CCCC[C@H]1[NH-].[Pt+4]` (relative stereo) [Oxaliplatin, cis-[(1R,2R)-1,2-cyclohexanediamine-N,N′][oxalato(2)-O,O′] platinum] was tested, and the “PWT 50% (g) Baseline” value [1] was 0.780 g, the “PWT 50% (g) D3” value [1] was 0.423 g and the “PWT 50% (g) D5” value [1] was 0.357 g. For the same compound, the “PWT 50% (g) D7” value [1] was 0.369 g, the “PWT 50% (g) D9” value [1] was 0.373 g and the “mechanical allodynia (in words)” value (oxaliplatin treated animals, day 3 to day 9, BXQ-350 20 mg/kg, pregabalin 30 mg/kg 2 hours before assessment) was “induced consistent and persistent mechanical allodynic response”.
